Data published in patent publication US20090156565A1, “COMPOSITION AND USE THEREOF IN ENHANCING A THERAPEUTIC EFFECT OF AN ANTIEPILEPTIC DRUG” (priority 2004, published 2009).
Read-outs that look alike come from different tables or passages of the source.

How the values were obtained:
[1] = tested on: pilocarpine induced status-epilepticus; test: Pilocarpine induced status-epilepticus in rats, mifepristone pretreatment, repeated diazepam doses until seizures stop; type: in vivo, Adult male Sprague-Dawley rats; conditions: for cumulative diazepam dose required to stop behavioral seizures (mean ±SEM): diazepam 6 mg/kg 1 h after SE, then 3 mg/kg every two hours
Protocol: Mifepristone is a yellow powdery substance and is available commercially (Sigma, St. Louis, Mo.). Adult male Sprague-Dawley rats were implanted with electrodes in CA1 and frontal cortex. After one week of recovery, rats were put in recording cages and connected to EEG monitoring system for continuous video-EEG recording. Rats were then treated with mifepristone (25 mg/kg body weight) one hour before the pilocarpine injection. Thirty minutes later rats were treated with scopalamine (1 mg/kg body weight) to reduce peripheral side effects of pilocarpine. Rats were injected with pilocarpine (385 mg/kg body weight) 30 minutes after the scopalamine injection to induce status-epilepticus. One hour after declared status-epilepticus, rats were treated with diazepam (6 mg/kg) to stop the seizures. Every two hours rats were monitored for signs of behavioral seizures and if required they were injected with 3 mg/kg diazepam until they completely stop seizing. The process was repeated until the rats completely stopped seizing. […] This example was presented by inventors in an article titled “Effects of Glucocorticoid Receptor Activity on Diazepam Efficacy in Terminating Status-Epilepticus in Adult Rats,” Epilepsia Vol. 45, Suppl. 7, page 146, October, 2004.
The histogram represents mean (±SEM) cumulative diazepam dose (mg/kg body weight) required to stop behavioral seizures.

[2] = tested on: maximal electricroshock-induced seizures; conditions: cited from earlier work; for protective activity of clonazepam against maximum electroshock: co-administration
[3] = tested on: status epilepticus; test: Mifepristone given 15 minutes after onset of SE, diazepam after 1 hour, hourly monitoring for behavioral seizures; type: in vivo, rats; conditions: for rats that stopped seizing: 5 and 6 hours after DZ treatment
Protocol: In this experiment, mifepristone was given 15 minutes after onset of SE, but prior to administering the first dose of diazepam (DZ). Diazepam (7.5 mg/kg) was given after 1 hour of onset of SE. After DZ treatment, rats were monitored hourly for behavioral seizures.

[4] = tested on: pilocarpine induced status-epilepticus; test: EEG (cortex and hippocampus) 24 hours after pilocarpine injection; type: in vivo; conditions: rats that received mifepristone versus rats without treatment
[5] = tested on: pilocarpine induced status-epilepticus; test: Pilocarpine induced status-epilepticus in rats, mifepristone pretreatment, single diazepam dose, behavioral seizures (Racine stage); type: in vivo; conditions: not pretreated with mifepristone; single diazepam dose 7.5 mg/kg given 30 minutes after status-epilepticus; n=5

CC#C[C@]1(O)CC[C@H]2[C@@H]3CCC4=CC(=O)CCC4=C3[C@@H](c3ccc(N(C)C)cc3)C[C@@]21C [mifepristone, 17-beta-hydroxy-11-beta-(4-dimethyl-aminophenyl)-17-alpha(1-propynyl)-estra-4,9-dien-3-one]
lower cumulative diazepam dose to terminate behavioral seizures compared to rats not pretreated with mifepristone ([1]; mifepristone pretreatment before pilocarpine, P<0.0005): 26.5%
cumulative diazepam dose required to stop behavioral seizures (mean ±SEM) ([1]; rats pretreated with mifepristone 25 mg/kg one hour before pilocarpine, ±0.41, n=14, p<0.0005): 7.5 mg/kg
effect on protective action of antiepileptic drugs against maximal electroshock-induced seizures ([2]; in combination with clonazepam, carbamazepine, phenobarbital, mice): failed to affect their protective action
effect on electrically-induced seizures ([2]; used alone, mice): no effect
rats that had stopped seizing, compared to rats that did not receive mifepristone ([3]; 3 to 6 hours after DZ treatment, mifepristone 15 minutes after onset of SE, diazepam 7.5 mg/kg 1 hour after onset): significantly more
rats that stopped seizing ([3]; mifepristone 15 minutes after onset of SE plus diazepam 7.5 mg/kg, p<0.018, Kaplan-Meier): 100%
frequency of spike-wave discharges and seizure recurrence [4]: lower frequency of spike-wave discharges and seizure recurrence

CC(=O)O[C@]1(C(C)=O)CC[C@H]2[C@@H]3C=C(Cl)C4=CC(=O)[C@@H]5C[C@@H]5[C@]4(C)[C@H]3CC[C@@]21C [CYP, cyproterone acetate]
protective activity of clonazepam against maximum electroshock ([2]; male mice): improved

CC/C(=C(\c1ccccc1)c1ccc(OCCN(C)C)cc1)c1ccccc1 [TXF, tamoxifen]
protective activity of clonazepam against maximum electroshock ([2]; female mice): improved

CN1C(=O)CN=C(c2ccccc2)c2cc(Cl)ccc21 [diazepam]
cumulative diazepam dose required to stop behavioral seizures (mean ±SEM) ([1]; rats that did not receive mifepristone, ±0.5, n=20): 10.2 mg/kg
rats that stopped seizing ([3]; diazepam 7.5 mg/kg, rats not receiving mifepristone): 33%
rats that stopped seizing by 4 hours [5]: 1/5
